Test results: US8455225B2, “Yeast with increased butanol tolerance involving high osmolarity/glycerol response pathway” (Butamax Advanced Biofuels LLC, priority 2008, dated 2013)

Tested on: translation at the initiation step
Assay: not given
Settings: Ashe et al. 2001; cited from earlier work

Compound | effect on translation
butanol | rapid inhibition of translation at the initiation step

Tested on: haploid cells
Assay: not given
Settings: Lorenz et al. 2000; cited from earlier work

Compound | effect on growth morphology
CCCCO [1-butanol] | stimulates filamentous growth in haploid cells

Tested on: PBS2 deletion strains
Assay: not given
Settings: homozygous deletion set screens (Fuijta et al. 2006; van Voorst et al. 2006) and other literature; cited from earlier work

Compound | hypersensitivity of PBS2 deletion strains
OCCS [2-mercaptoethanol] | hypersensitive
[Ca+2].[Cl-].[Cl-] [CaCl2] | hypersensitive
CCCCCO [pentanol] | not found to be hypersensitive
[Cl-].[Na+] [NaCl] | hypersensitive
O[C@H](CS)[C@H](O)CS (racemic) [dithiothreitol] | hypersensitive
O=[As][O-].[Na+] [sodium metaarsenite] | hypersensitive
OC[C@@H](O)[C@@H](O)[C@H](O)[C@@H](O)CO [sorbitol] | hypersensitive
CCO [ethanol] | not found to be hypersensitive
COC(=O)Nc1nc2ccc(C(=O)c3cccs3)cc2[nH]1 [nocodazole] | hypersensitive
tunicamycin | hypersensitive
CCCO [propanol] | not found to be hypersensitive

Tested on: PBS2p over-producing strain
Assay: Growth yield in the presence of isobutanol, PBS2 ORF overexpressed from GAL1 promoter
Assay type: cell-based, Saccharomyces cerevisiae
Settings: 1% isobutanol, PBS2p over-producing strain vs BY4741
Method: The effect of overexpression of the PBS2 coding region was assessed as follows. A Yeast ORF collection (Gelperin, White et al. (2005) Genes Dev. 19(23):2816-2826)_is available from Open Biosystems (Huntsville, Ala.). In this collection yeast ORFs are expressed from the GAL1 promoter in the vector BG1805. This vector can be introduced into ura3 yeast mutants and transformants selected for uracil prototrophy. In the presence of galactose and the absence of glucose, expression from the GAL1 promoter is elevated about 1000 fold relative to the barely detectable level observed with glucose grown cells (Johnston and Davis (1984) Mol. Cell. Biol. 4(8):1440-1448). Note that each ORF encodes a fusion protein of the form:
A plasmid containing the PBS2 ORF was obtained from this collection (YSC3867-9523439) and transformed into yeast strain BY4741 selecting for uracil prototrophy. […] Growth yield was measured by the following method. […] Absorbance was recorded.
Cultures were grown for 2-3 hours to allow one doubling. Absorbance was recorded at this time and was called T=0. […] OD600 was measured after incubation on a roller drum for 2 days. […] Percent growth was calculated as 100×[average A600 of the triplicate isobutanol challenged cultures/average A600 of the triplicate control cultures.

Compound | improvement in growth yield over the parental strain [%]
CC(C)CO [isobutanol] | 41
